Source: BindingDB's records for doi:10.1124/mol.63.5.1082 (Johnson and Johnson Pharmaceutical Research and …, 2003)
Several values for one entry are separate records, joined by “and”; a condition that tells them apart may be missing. Equal entries are not always repeated.

target: Metabotropic glutamate receptor 1 (Rattus norvegicus, UniProt P23385)
Sequence (P23385 whole entry): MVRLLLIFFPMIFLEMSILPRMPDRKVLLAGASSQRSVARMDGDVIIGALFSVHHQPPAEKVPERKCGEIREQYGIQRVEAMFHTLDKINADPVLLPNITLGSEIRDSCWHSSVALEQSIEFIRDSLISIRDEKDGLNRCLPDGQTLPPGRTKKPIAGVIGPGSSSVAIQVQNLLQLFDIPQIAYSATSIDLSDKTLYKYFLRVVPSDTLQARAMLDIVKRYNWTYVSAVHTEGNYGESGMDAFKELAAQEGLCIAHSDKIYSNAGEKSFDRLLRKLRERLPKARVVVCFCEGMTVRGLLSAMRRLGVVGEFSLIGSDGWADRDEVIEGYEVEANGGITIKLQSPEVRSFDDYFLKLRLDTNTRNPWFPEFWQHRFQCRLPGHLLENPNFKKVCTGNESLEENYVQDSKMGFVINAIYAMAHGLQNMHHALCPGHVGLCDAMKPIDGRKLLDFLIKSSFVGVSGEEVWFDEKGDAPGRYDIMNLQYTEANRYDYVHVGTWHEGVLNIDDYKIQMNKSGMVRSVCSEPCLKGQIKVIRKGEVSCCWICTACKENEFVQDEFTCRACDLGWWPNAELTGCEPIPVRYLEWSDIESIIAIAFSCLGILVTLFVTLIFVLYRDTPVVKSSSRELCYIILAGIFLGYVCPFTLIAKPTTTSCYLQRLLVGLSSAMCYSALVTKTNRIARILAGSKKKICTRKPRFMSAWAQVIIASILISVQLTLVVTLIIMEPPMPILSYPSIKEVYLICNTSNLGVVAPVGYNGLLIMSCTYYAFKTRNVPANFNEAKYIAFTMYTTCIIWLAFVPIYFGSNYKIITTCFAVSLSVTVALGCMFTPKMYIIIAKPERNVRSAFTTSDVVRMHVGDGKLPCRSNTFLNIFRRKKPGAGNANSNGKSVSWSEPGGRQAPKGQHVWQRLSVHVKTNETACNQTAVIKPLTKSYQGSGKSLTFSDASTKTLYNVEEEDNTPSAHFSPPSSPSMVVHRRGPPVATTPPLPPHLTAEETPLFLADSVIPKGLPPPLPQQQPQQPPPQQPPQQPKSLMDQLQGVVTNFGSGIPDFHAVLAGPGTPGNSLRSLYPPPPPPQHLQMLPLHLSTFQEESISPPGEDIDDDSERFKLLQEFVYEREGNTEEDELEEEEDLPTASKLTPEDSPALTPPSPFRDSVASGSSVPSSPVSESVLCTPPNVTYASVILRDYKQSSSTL

| SMILES | Ki |
| --- | --- |
| O=C(Cc1ccccc1)c1ccc2nc3c(cc2c1)CCCO3 | 1000 nM |
| CCOC(=O)C12CC1C(N=O)c1ccccc1O2 (stereo not drawn) [CAS_5126051] | 1000 nM and 4900 nM |
| N[C@H](C(=O)O)c1cc(O)cc(O)c1 [amino(3,5-dihydroxyphenyl)acetic acid] | > 10000 nM |
